Data taken from PubChem BioAssay AID1963440 (Molecular Pharmacology Branch, DTP, NCI, 2024).

Test system: NCI-H1417 complex spheroids, growth % test/control
Test: Anticancer human tumor NCI-H1417 cell line growth inhibition [Asc];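 further: spheroids exposed to compounds for 7 days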;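 on viability, T/C: 100% = DMSO vehicle control wells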
Conditions: for viability, T/C: stronger effect = lower value
How it was run: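 Complex spheroids combining tumor cells with HUVEC endothelial cells and human MSCs, at 37 degrees C, 5% CO2; agents tested alone or combined, half-log dilutions from at or near clinical Cmax, or 10 microM if Cmax unknown.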

[1] = curve of first compound, second compound 0.03 µM
[2] = curve of first compound, second compound 0.0949 µM
[3] = curve of first compound, second compound 0.3 µM
[4] = curve of first compound, second compound 0.949 µM
[5] = curve of first compound, second compound 3 µM
[6] = second compound 0.03 µM, first compound 0.00316 µM
[7] = second compound 0.03 µM, first compound 0.01 µM
[8] = second compound 0.03 µM, first compound 0.0316 µM
[9] = second compound 0.03 µM, first compound 0.1 µM
[10] = second compound 0.03 µM, first compound 0.316 µM
[11] = second compound 0.03 µM, first compound 1 µM
[12] = second compound 0.0949 µM, first compound 0.00316 µM
[13] = second compound 0.0949 µM, first compound 0.01 µM
[14] = second compound 0.0949 µM, first compound 0.0316 µM
[15] = second compound 0.0949 µM, first compound 0.1 µM
[16] = second compound 0.0949 µM, first compound 0.316 µM
[17] = second compound 0.0949 µM, first compound 1 µM
[18] = second compound 0.3 µM, first compound 0.00316 µM
[19] = second compound 0.3 µM, first compound 0.01 µM
[20] = second compound 0.3 µM, first compound 0.0316 µM
[21] = second compound 0.3 µM, first compound 0.1 µM
[22] = second compound 0.3 µM, first compound 0.316 µM
[23] = second compound 0.3 µM, first compound 1 µM
[24] = second compound 0.949 µM, first compound 0.00316 µM
[25] = second compound 0.949 µM, first compound 0.01 µM
[26] = second compound 0.949 µM, first compound 0.0316 µM
[27] = second compound 0.949 µM, first compound 0.1 µM
[28] = second compound 0.949 µM, first compound 0.316 µM
[29] = second compound 0.949 µM, first compound 1 µM
[30] = second compound 3 µM, first compound 0.00316 µM
[31] = second compound 3 µM, first compound 0.01 µM
[32] = second compound 3 µM, first compound 0.0316 µM
[33] = second compound 3 µM, first compound 0.1 µM
[34] = second compound 3 µM, first compound 0.316 µM
[35] = second compound 3 µM, first compound 1 µM

| SMILES | IC50 [1] | IC50 [2] | IC50 [3] | IC50 [4] | IC50 [5] | viability, T/C [6] | viability, T/C [7] | viability, T/C [8] | viability, T/C [9] | viability, T/C [10] | viability, T/C [11] | viability, T/C [12] | viability, T/C [13] | viability, T/C [14] | viability, T/C [15] | viability, T/C [16] | viability, T/C [17] | viability, T/C [18] | viability, T/C [19] | viability, T/C [20] | further results |
| --- | --- | --- | --- | --- | --- | --- | --- | --- | --- | --- | --- | --- | --- | --- | --- | --- | --- | --- | --- | --- | --- |
| CCN1CCN(Cc2ccc(Nc3ncc(F)c(-c4cc(F)c5nc(C)n(C(C)C)c5c4)n3)nc2)CC1 + CCN1C(C(=O)NC23CCC(C(=O)O)(CC2)CC3)C(c2cccc(Cl)c2F)C2(C(=O)Nc3cc(Cl)ccc32)C12CCCCC2 | > 1000 nM | > 1000 nM | > 1000 nM | > 1000 nM | > 1000 nM | 108% | 110% | 93.6% | 93.8% | 97.8% | 83% | 103% | 104% | 92.7% | 98.2% | 94% | 91.5% | 103% | 100% | 110% | viability, T/C [21]: 102%; viability, T/C [22]: 95.7%; viability, T/C [23]: 81.2%; viability, T/C [24]: 87.2%; viability, T/C [25]: 93.1%; viability, T/C [26]: 88.2%; viability, T/C [27]: 91.1%; viability, T/C [28]: 88.8%; viability, T/C [29]: 78.4%; viability, T/C [30]: 99.5%; viability, T/C [31]: 91.1%; viability, T/C [32]: 98.8%; viability, T/C [33]: 91.4%; viability, T/C [34]: 83.8%; viability, T/C [35]: 75.1% |
| CNC(C)C(=O)NC1CN(S(=O)(=O)c2cccc(S(=O)(=O)N3CCC4CCC(C(=O)NC(c5ccccc5)c5ccccc5)N4C(=O)C(NC(=O)C(C)NC)C3)c2)CCC2CCC(C(=O)NC(c3ccccc3)c3ccccc3)N2C1=O (stereo unspecified) + CCN1C(C(=O)NC23CCC(C(=O)O)(CC2)CC3)C(c2cccc(Cl)c2F)C2(C(=O)Nc3cc(Cl)ccc32)C12CCCCC2 | > 1000 nM | > 1000 nM | > 1000 nM | > 1000 nM | > 1000 nM | 121% | 107% | 112% | 111% | 99.8% | 109% | 101% | 94.8% | 108% | 91.5% | 101% | 115% | 116% | 118% | 94.6% | viability, T/C [21]: 104%; viability, T/C [22]: 105%; viability, T/C [23]: 100%; viability, T/C [24]: 97%; viability, T/C [25]: 98.9%; viability, T/C [26]: 93.4%; viability, T/C [27]: 97.5%; viability, T/C [28]: 87.1%; viability, T/C [29]: 91.1%; viability, T/C [30]: 97.2%; viability, T/C [31]: 98.8%; viability, T/C [32]: 91.8%; viability, T/C [33]: 90.8%; viability, T/C [34]: 84.2%; viability, T/C [35]: 99.4% |
| Cc1c(S(C)(=O)=O)c(-c2cc(F)cc(N3CCN(c4ccc(NS(=O)(=O)c5ccc(NC(CCN6CCC(C(=O)OCCCP(=O)(O)O)CC6)CSc6ccccc6)c(S(=O)(=O)C(F)(F)F)c5)cc4)CC3)c2)c(-c2ccc(Cl)cc2)n1C(C)C (stereo unspecified) | – | – | – | – | – | – | – | – | – | – | – | – | – | – | – | – | – | – | – | – | viability, T/C (compound 0.1 µM): 81.6% [middle of 14 runs]; viability, T/C (compound 0.316 µM): 50.6% [middle of 14 runs]; viability, T/C (compound 1 µM): 13.7% [middle of 14 runs]; viability, T/C (compound 3.16 µM): 3.19% [middle of 14 runs]; viability, T/C (compound 10 µM): 2.54% [middle of 12 runs]; IC50 (compound alone, run of 10/11/2022): 322 nM [middle of 14 runs] |
